Assay results published in patent US11149277B2, “Method of producing enriched exosomes” (National Health Research Institutes, priority 2016, dated 2021).

Assays:
[1] = tested on: mesenchymal stem cells (MSCs); test: Osteogenic, adipogenic and neural differentiation of MSCs; format: cell-based; settings: GW-treated MSCs
Experimental: (A) and (B) show osteogenic differentiation of MSCs and EP4 antagonist GW-treated MSCs. MSCs were cultured in osteogenic differentiation medium and then stained with Alizarin Red S. Osteogenic differentiation was quantified by measuring the optical density (OD) of Alizarin Red S staining. […] MSCs were cultured in adipogenic differentiation medium. […] MSCs were cultured in neural differentiation medium for 7 or 14 days and then analyzed for the expression of neuronal marker tublin β3 and NeuN using western blotting.
GW-treated MSCs were cultured in osteogenic differentiation medium, adipogenic differentiation medium and neuron differentiation medium, respectively.

NAMEC-R cells = test: NTA of EV release from Ras-transformed NAMEC-R cells; format: cell-based; settings: CM-P4, 4 days; GW 1 μg/ml; SQ 120 and 240 nM
Experimental: Vesicles in the P4 fractions were counted using NTA. Data are means±SEM (n=6). ***P≤0.001; (B) The Alix, TSG101, CD63, CD81 and GAPDH exosome markers were measured in the CM-P4 fractions of NAMEC-R cells treated with vehicle (Crl), GW627368X (GW, 1 μg/ml), SQ 29,548 (SQ120/SQ240; 120 nM and 240 nM); (C) The mesenchymal marker N-cadherin, CSC markers and exosome markers were analyzed in the conditioned medium P4 fraction derived from equal numbers of vehicle-treated NAMEC-R cells (Crl), GW-treated NAMEC-R cells (GW, 1 μg/ml GW627368X for 4 days) and SQ 29,548-treated NAMEC-R cells (SQ120/SQ240; 120 nM and 240 nM for 4 days). The longer GAPDH(L) and CD81(L) exposures show the low, but detectable, presence of GAPDH and CD81 in the conditioned medium P4 fraction of vehicle-treated NAMEC-R cells.
We further investigated whether EP4 antagonism and TP receptor antagonism (as GW has partial affinity to the human TP receptor) affected EV release from transformed mammary epithelial stem cells. Four-day conditioned media of vehicle, GW-, or SQ (a TP antagonist)-treated Ras-transformed NAMEC mammary stem cells (NAMEC-R) were collected and subjected to differential ultracentrifugation to isolate EVs released by the cells. The numbers of vesicles in CM-P4 fractions were determined using NTA (FIG. 20, A). EP4 antagonism elicited release of ˜5000 vesicles per NAMEC-R cell. […]

NAMECs = test: Boyden chamber migration of NAMECs; format: cell-based, human; settings: GW pre-treatment, 4 days
Experimental: FIG. 3 includes a set of images and two graphs. (A) is a set of bright-field images of NAMECs treated with vehicle, GW627368X, Dynasore (1 μM), or GW627368X plus Dynasore (0.5, 1, 1.5 μM) for 4 days. Scale bar, 100 μm. (B) is a graph showing the percentage of NAMECs treated with vehicle, GW627368X, Dynasore (1 μM), or GW627368X plus Dynasore (0.75 and 1 μM) that were resistant to 0.05% trypsin. Data are means±SEM, (n=3). ***P≤0.001. (C) is a graph showing Boyden chamber migration of NAMECs treated with vehicle (Crl), GW627368X, Dynasore (1 μM), or GW627368X plus Dynasore (0.5, 0.75, 1 μM) for 4 days. Data are means±SEM (n=3). **P≤0.005. ***P≤0.001.

HMLE cells = test: Exosome markers in CM-P4 fraction of non-stem HMLE cells; format: cell-based; settings: 2 days treatment
Text: FIG. 2 includes graphs and blots showing analyses of GW-treated NAMEC P4 fractions. CM-P4 GW-treated NAMECs were collected and subjected to (A) NanoSight Nanoparticle Tracking Analysis (NTA) and (B) Dynamic Light Scattering/Zeta Potential Analysis (DLS). […] D: particle diameter. RN: relative number. (C) is a blot showing the amounts of the CD44 stem cell marker and the CD81, CD9, TSG101, Alix, HSP70 and GAPDH exosome markers measured in the indicated CM-P4 fractions and cell lysates. The culture media and cell lysates were collected from the same number of NAMECs treated with vehicle (Crl), GW627368X (GW) or PGE2 (1 μM) for 4 days. (D) is a blot showing the amounts of the GAPDH and CD81 exosome markers and the CD44 stem cell marker measured in the CM-P4 fraction of NAMECs (CD44hi/CD24− stem cells) or CD44lo/CD24+ non-stem cells (HMLE cells) treated with vehicle (Crl) or GW for 2 days. 1×: P4 exosome fraction released by 1×10^6 cells; 2×: P4 exosome fraction released by 2×10^6 cells. […] (E) is a blot showing that the CD44 stem cell marker and GAPDH and CD81 exosome markers were measured in the indicated P4 conditioned medium fractions of NAMECs treated with vehicle (Crl), GW627368X (GW, 1 μg/ml), AH23848 (EP4 antagonist; 0.4, 2, 4 μg/ml), or AH6809 (EP1/2/3 antagonist; 0.8, 4, 8 μg/ml). […]

**Q.** Which results are given for `CCOc1c2c(c(OCC)c3ccccc13)C(=O)N(c1ccc(CC(=O)NS(=O)(=O)c3ccccc3)cc1)C2` [GW627368X]?
**A.** abilities to differentiate into osteoblasts, adipocytes or nerve cells vs non-treated MSCs [1]: much lowered; vesicles released per cell (NAMEC-R cells): ~5000 vesicles per cell; decrease of number of migrating cells (NAMECs): ~60%; exosome release from non-stem HMLE cells (CD81, CD44, GAPDH) (HMLE cells): did not increase exosome release
